Experimental data: patent US7709636B2, “Pyrazole sulfonylurea compound and herbicide” (Nissan Chemical Industries, Ltd., priority 2004, dated 2010)

Tests used:
Digitaria adscendes [1] = experiment: Herbicidal effect test by foliage treatment; assay type: in vivo; settings: 1.6 g/a; foliage treatment after growth of 14 days; 3 weeks after treatment
Procedure, shortened: (§1)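 Seeds sown in sterilized diluvial soil, covered with about 1.5 cm soil and grown 14 days in a greenhouse at 25 to 30° C. Foliage then sprayed uniformly with water-diluted wettable powder at a predetermined formulation amount; herbicidal effect scored 3 weeks after treatment.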

[2] = system: Triticum aestivum (wheat); experiment: Herbicidal effect test by foliage treatment; assay type: in vivo; settings: 1.6 g/a; foliage treatment after growth of 14 days; 3 weeks after treatment
Procedure, shortened: as §1

Setaria viridis [3] = experiment: Herbicidal effect test by foliage treatment; assay type: in vivo; settings: 1.6 g/a; foliage treatment after growth of 14 days; 3 weeks after treatment
Procedure, shortened: as §1

Abutilon avicennae [4] = experiment: Herbicidal effect test by foliage treatment; assay type: in vivo; settings: 1.6 g/a; foliage treatment after growth of 14 days; 3 weeks after treatment
Procedure, shortened: as §1

Avena fatua [5] = experiment: Herbicidal effect test by foliage treatment; assay type: in vivo; settings: 1.6 g/a; foliage treatment after growth of 14 days; 3 weeks after treatment
Procedure, shortened: as §1

soybean (Glycine max) [6] = experiment: Herbicidal effect test by foliage treatment; assay type: in vivo; settings: 1.6 g/a; foliage treatment after growth of 14 days; 3 weeks after treatment
Procedure, shortened: as §1

Ambrosia elatior [7] = experiment: Herbicidal effect test by foliage treatment; assay type: in vivo; settings: 1.6 g/a; foliage treatment after growth of 14 days; 3 weeks after treatment
Procedure, shortened: as §1

Stellaria media [8] = experiment: Herbicidal effect test by foliage treatment; assay type: in vivo; settings: 1.6 g/a; foliage treatment after growth of 14 days; 3 weeks after treatment
Procedure, shortened: as §1

Polygonum blumei [9] = experiment: Herbicidal effect test by foliage treatment; assay type: in vivo; settings: 1.6 g/a; foliage treatment after growth of 14 days; 3 weeks after treatment
Procedure, shortened: as §1

Chenopodium album [10] = experiment: Herbicidal effect test by foliage treatment; assay type: in vivo; settings: 1.6 g/a; foliage treatment after growth of 14 days; 3 weeks after treatment
Procedure, shortened: as §1

corn (Zea mays) [11] = experiment: Herbicidal effect test by foliage treatment; assay type: in vivo; settings: 1.6 g/a; foliage treatment after growth of 14 days; 3 weeks after treatment
Procedure, shortened: as §1

Echinochloa crus-galli [12] = experiment: Herbicidal effect test by foliage treatment; assay type: in vivo; settings: 1.6 g/a; foliage treatment after growth of 14 days; 3 weeks after treatment
Procedure, shortened: as §1

direct sown rice = experiment: Herbicidal effect test by soil treatment; assay type: in vivo, Oryza sativa; settings: 1.6 g/a, 3 weeks after treatment
Procedure, shortened: (§2)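 Seeds were sown in sterilized diluvial soil and covered with about 1.5 cm of soil. A wettable powder diluted in water to a predetermined formulation amount was sprayed uniformly on the soil surface. Herbicidal effect was scored visually 3 weeks after treatment.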

Digitaria adscendes [13] = experiment: Herbicidal effect test by soil treatment; assay type: in vivo; settings: 1.6 g/a, 3 weeks after treatment
Procedure, shortened: as §2

Beta vulgaris (beet) = experiment: Herbicidal effect test by soil treatment; assay type: in vivo; settings: 1.6 g/a, 3 weeks after treatment
Procedure, shortened: as §2

[14] = system: Triticum aestivum (wheat); experiment: Herbicidal effect test by soil treatment; assay type: in vivo; settings: 1.6 g/a, 3 weeks after treatment
Procedure, shortened: as §2

Setaria viridis [15] = experiment: Herbicidal effect test by soil treatment; assay type: in vivo; settings: 1.6 g/a, 3 weeks after treatment
Procedure, shortened: as §2

Abutilon avicennae [16] = experiment: Herbicidal effect test by soil treatment; assay type: in vivo; settings: 1.6 g/a, 3 weeks after treatment
Procedure, shortened: as §2

Avena fatua [17] = experiment: Herbicidal effect test by soil treatment; assay type: in vivo; settings: 1.6 g/a, 3 weeks after treatment
Procedure, shortened: as §2

soybean (Glycine max) [18] = experiment: Herbicidal effect test by soil treatment; assay type: in vivo; settings: 1.6 g/a, 3 weeks after treatment
Procedure, shortened: as §2

Ambrosia elatior [19] = experiment: Herbicidal effect test by soil treatment; assay type: in vivo; settings: 1.6 g/a, 3 weeks after treatment
Procedure, shortened: as §2

Stellaria media [20] = experiment: Herbicidal effect test by soil treatment; assay type: in vivo; settings: 1.6 g/a, 3 weeks after treatment
Procedure, shortened: as §2

Polygonum blumei [21] = experiment: Herbicidal effect test by soil treatment; assay type: in vivo; settings: 1.6 g/a, 3 weeks after treatment
Procedure, shortened: as §2

Black-grass = experiment: Herbicidal effect test by soil treatment; assay type: in vivo; settings: 1.6 g/a, 3 weeks after treatment
Procedure, shortened: as §2

Chenopodium album [22] = experiment: Herbicidal effect test by soil treatment; assay type: in vivo; settings: 1.6 g/a, 3 weeks after treatment
Procedure, shortened: as §2

corn (Zea mays) [23] = experiment: Herbicidal effect test by soil treatment; assay type: in vivo; settings: 1.6 g/a, 3 weeks after treatment
Procedure, shortened: as §2

Echinochloa crus-galli [24] = experiment: Herbicidal effect test by soil treatment; assay type: in vivo; settings: 1.6 g/a, 3 weeks after treatment
Procedure, shortened: as §2

Amaranthus retroflexus = experiment: Herbicidal effect test by soil treatment; assay type: in vivo; settings: 1.6 g/a, 3 weeks after treatment
Procedure, shortened: as §2

[25] = system: rice transplanted at a depth of 0 cm; experiment: Herbicidal effect test in submerged condition by treatment before weed-generation (2); assay type: in vivo, Oryza sativa; settings: 0.3 g/a; submerged paddy soil pot, seedlings fixed to paddy surface with roots exposed; 3 weeks after treatment
Description: (§3) Herbicidal Effect Test in Submerged Condition by Treatment Before Weed-Generation (2)
(§4) Paddy surface soil was placed in a plastic pot of 1/10000 are, water was poured therein and mixed. After seeds of Scirpus juncoides were sown, paddy surface soil was added by 2 cm, and submerged with water, and then seeds of Echinochloa crus-galli, Scirpus juncoides, Monochoria vaginalis, Rotala indica and Lindernia pyxidaria were sown together. In addition, rice seedlings at 2.5th leaf stage were transplanted, and fixed to the paddy surface in a state where the roots were exposed on the other side. On the day when the seeds were sown, the wettable powder of the present invention prepared according to Formulation Example 1 was diluted with water so as to give a predetermined formulation amount, and the surface of the water was treated with the diluted wettable powder. The plants were grown by putting the pot in a green house at 25 to 30° C. The herbicidal effect for each plant was investigated 3 weeks after treatment with the herbicide according to the criteria indicated in Test Example 1.

Lindernia pyxidaria = experiment: as above; assay type: in vivo; settings: 0.3 g/a; submerged paddy soil pot, water surface treated on day of sowing; 3 weeks after treatment
Description: as §3, §4

[26] = system: transplanted rice (Oryza sativa); experiment: as above; assay type: in vivo; settings: 0.3 g/a; submerged paddy soil pot, rice seedlings at 2.5th leaf stage transplanted; 3 weeks after treatment
Description: as §3, §4

Rotala indica = experiment: as above; assay type: in vivo; settings: 0.3 g/a; submerged paddy soil pot, water surface treated on day of sowing; 3 weeks after treatment
Description: as §3, §4

Monochoria vaginalis = experiment: as above; assay type: in vivo; settings: 0.3 g/a; submerged paddy soil pot, water surface treated on day of sowing; 3 weeks after treatment
Description: as §3, §4

Scirpus juncoides = experiment: as above; assay type: in vivo; settings: 0.3 g/a; submerged paddy soil pot, water surface treated on day of sowing; 3 weeks after treatment
Description: as §3, §4

Echinochloa crus-galli [27] = experiment: as above; assay type: in vivo; settings: 0.3 g/a; submerged paddy soil pot, water surface treated on day of sowing; 3 weeks after treatment
Description: as §3, §4

For `COc1cc(OC)nc(NC(=O)NS(=O)(=O)c2c(C3=NOCC(C)O3)c(Cl)nn2C)n1` (centres unmarked) [Compound 1, N-((4,6-dimethoxypyrimidin-2-yl)aminocarbonyl)-3-chloro-1-methyl-4-(5-methyl-5H,6H-1,4,2-dioxadin-3-yl)pyrazole-5-sulfonamide], the “herbicidal effect, D: Digitaria adscendes” value (Digitaria adscendes [1]) was 5 (Herbicidal rate 90% or more (almost complete death)), the “herbicidal effect, e: Triticum aestivum (wheat)” value [2] was 2 (Herbicidal rate 20% or more and less than 40%) and the “herbicidal effect, E: Setaria viridis” value (Setaria viridis [3]) was 3 (Herbicidal rate 40% or more and less than 70%). The “herbicidal effect, H: Abutilon avicennae” value (Abutilon avicennae [4]) was 5 (Herbicidal rate 90% or more (almost complete death)), the “herbicidal effect, F: Avena fatua” value (Avena fatua [5]) was 1 (Herbicidal rate 5% or more and less than 20%) and the “herbicidal effect, c: soybean (Glycine max)” value (soybean (Glycine max) [6]) was 5 (Herbicidal rate 90% or more (almost complete death)). For the same molecule, the “herbicidal effect, I: Ambrosia elatior” value (Ambrosia elatior [7]) was 5 (Herbicidal rate 90% or more (almost complete death)), the “herbicidal effect, M: Stellaria media” value (Stellaria media [8]) was 5 (Herbicidal rate 90% or more (almost complete death)) and the “herbicidal effect, L: Polygonum blumei” value (Polygonum blumei [9]) was 5 (Herbicidal rate 90% or more (almost complete death)). For the same molecule, the “herbicidal effect, K: Chenopodium album” value (Chenopodium album [10]) was 4 (Herbicidal rate 70% or more and less than 90%), the “herbicidal effect, b: corn (Zea mays)” value (corn (Zea mays) [11]) was 5 (Herbicidal rate 90% or more (almost complete death)) and the “herbicidal effect, A: Echinochloa crus-galli” value (Echinochloa crus-galli [12]) was 5 (Herbicidal rate 90% or more (almost complete death)). For the same molecule, the “herbicidal effect, d: direct sown rice” value (direct sown rice) was 2 (Herbicidal rate 20% or more and less than 40%), the “herbicidal effect, D: Digitaria adscendes” value (Digitaria adscendes [13]) was 4 (Herbicidal rate 70% or more and less than 90%) and the “herbicidal effect, f: Beta vulgaris (beet)” value (Beta vulgaris (beet)) was 5 (Herbicidal rate 90% or more (almost complete death)). For the same molecule, the “herbicidal effect, e: Triticum aestivum (wheat)” value [14] was 5 (Herbicidal rate 90% or more (almost complete death)), the “herbicidal effect, E: Setaria viridis” value (Setaria viridis [15]) was 1 (Herbicidal rate 5% or more and less than 20%) and the “herbicidal effect, H: Abutilon avicennae” value (Abutilon avicennae [16]) was 4 (Herbicidal rate 70% or more and less than 90%). The “herbicidal effect, F: Avena fatua” value (Avena fatua [17]) was 0 (Herbicidal rate 5% or less (little effect)), the “herbicidal effect, c: soybean (Glycine max)” value (soybean (Glycine max) [18]) was 5 (Herbicidal rate 90% or more (almost complete death)) and the “herbicidal effect, I: Ambrosia elatior” value (Ambrosia elatior [19]) was 5 (Herbicidal rate 90% or more (almost complete death)). The “herbicidal effect, M: Stellaria media” value (Stellaria media [20]) was 5 (Herbicidal rate 90% or more (almost complete death)), the “herbicidal effect, L: Polygonum blumei” value (Polygonum blumei [21]) was 5 (Herbicidal rate 90% or more (almost complete death)) and the “herbicidal effect, G: Black-grass” value (Black-grass) was 4 (Herbicidal rate 70% or more and less than 90%). The “herbicidal effect, K: Chenopodium album” value (Chenopodium album [22]) was 5 (Herbicidal rate 90% or more (almost complete death)), the “herbicidal effect, b: corn (Zea mays)” value (corn (Zea mays) [23]) was 5 (Herbicidal rate 90% or more (almost complete death)) and the “herbicidal effect, A: Echinochloa crus-galli” value (Echinochloa crus-galli [24]) was 2 (Herbicidal rate 20% or more and less than 40%). For the same molecule, the “herbicidal effect, J: Amaranthus retroflexus” value (Amaranthus retroflexus) was 5 (Herbicidal rate 90% or more (almost complete death)), the “herbicidal effect, g: rice transplanted at a depth of 0 cm” value [25] was 0 (Herbicidal rate 5% or less (little effect)) and the “herbicidal effect, O: Lindernia pyxidaria” value (Lindernia pyxidaria) was 5 (Herbicidal rate 90% or more (almost complete death)). For the same molecule, the “herbicidal effect, a: transplanted rice (Oryza sativa)” value [26] was 0 (Herbicidal rate 5% or less (little effect)), the “herbicidal effect, N: Rotala indica” value (Rotala indica) was 5 (Herbicidal rate 90% or more (almost complete death)) and the “herbicidal effect, C: Monochoria vaginalis” value (Monochoria vaginalis) was 5 (Herbicidal rate 90% or more (almost complete death)). For the same molecule, the “herbicidal effect, B: Scirpus juncoides” value (Scirpus juncoides) was 5 (Herbicidal rate 90% or more (almost complete death)) and the “herbicidal effect, A: Echinochloa crus-galli” value (Echinochloa crus-galli [27]) was 5 (Herbicidal rate 90% or more (almost complete death)).
